Laboratory results: patent US6689609B1, “Enhancing germination of plant somatic embryos by priming” (Cellfor Inc., priority 1999, dated 2004)

Key:
[1] = system: interior spruce somatic embryos; assay: Plant growth regulators added to nutripriming solutions: ex vitro germination and rooting of interior spruce somatic embryos; format: in vivo, Picea glauca (Moench) Voss x P. engelmannii Parry ex Engelm.
Source text: Mature somatic embryos of interior spruce (Picea glauca (Moench) Voss x P. engelmannii Parry ex Engelm.) genotypes 4-2809, 23-2672, and I-1026 were desiccated with the HRHT treatment. Genotype I-1026 was further desiccated at 85% RH for three days, then stored at −20C. Prior to nutripriming, genotype I-1026 was imbibed with a matripriming step which consisted of placing the desiccated embryos onto a screen, and then placing the screen on the surface of an agar substrate gelled with 3% phytogel for 18 hrs. After this imbibition step was completed for genotype I-1026, all three genotypes were nutriprimed for 84 hr in 3% w/v sucrose m24GMD nutripriming solutions amended with the plant growth regulators described in Table 8.1.
After the nutripriming step was completed, the nutriprimed somatic embryos were sown ex vitro into 400-cavity styrofoam miniplug trays filled with peat bound by a polymer (Grow-Tech Inc., San Bautista, Calif.). After sowing, the trays were placed into a non-sterile high-humidity (≧95% RH) germination chamber for one week. In both studies, immediately after the trays containing ex vitro sown nutriprimed embryos were placed into the non-sterile high-humidity germination chamber, they were misted with m24GMD solution containing 3% w/v sucrose until the surfaces of the non-sterile growing substrates were well-wetted, and subsequently at daily intervals for a period of 7 days. After the initial 7-day period in the non-sterile high-humidity germination environment, the trays were moved to a non-sterile misting chamber (RH ranged between 75-90%) for two more weeks of growth under an 18-hour photoperiod of […] PAR with day-night temperatures of 18-23° C. Daily applications of the m24GMD nutrient solution containing 3% w/v sucrose were misted onto the germinants through to the end of the two-week period in the misting chamber. Aseptic techniques or conditions were not used for application of the nutrient solutions, or for the germination and growing environments during the 3-week culture period.
At the end of the three-week germination period, all germinated embryos and seedlings were counted and examined for root initiation. Germination and rooting percentages were calculated based on total number of embryos sown in each replicate. The rooting percentage measures the plant conversion rate since the survived germinants can have perfectly elongated and formed shoot, but without root initiation.

[2] = system: interior spruce somatic embryos; assay: Plant growth regulators added to horticultural growing substrate after sowing: ex vitro germination and rooting of nutriprimed interior spruce somatic embryos; format: in vivo, Picea glauca (Moench) Voss x P. engelmannii Parry ex Engelm.; settings: primed
Source text: The second study assessing the effects of plant growth regulators on germination performance of nutriprimed somatic embryos involved additions of plant growth regulators to the horticultural growing substrates after the nutriprimed somatic embryos were sown ex vitro. In this study, somatic embryos from interior spruce genotypes 4-2809, 23-2672, and I-1026 were desiccated and stored as described for the first growth regulator study. Prior to nutripriming, genotype I-1026 was imbibed with a matripriming step which consisted of placing the desiccated embryos onto a screen, and then placing the screen on the surface of an agar substrate gelled with 3% phytogel foe 18 hrs. After this imbibition step was completed for genotype I-1026, all three genotypes were nutriprimed for 84 hr in 3% w/v sucrose m24GMD nutripriming solutions and then sown ex vitro into 400-cavity styrofoam miniplug trays filled with peat bound by a polymer (Grow-Tech Inc., San Bautista, Calif.). After sowing was completed, the nutriprimed embryo received exogenous applications of one of the treatments described in Table 8.3.
After the exogenous application of the plant growth regulator treatments, the blocks were placed onto a non-sterile high-humidity (≧95% RH) germination chamber for one week. Immediately after the trays containing ex vitro sown nutriprimed embryos were placed into the non-sterile high-humidity germination chamber, they were misted with m24GMD solution containing 3% w/v sucrose until the surfaces of the non-sterile growing substrates were well-wetted, and then at daily intervals for a period of 7 days. After the initial 7-day period in the non-sterile high-humidity germination environment, the trays were moved to a non-sterile misting chamber (RH ranged between 75-90%) for two more weeks of growth under an 18-hour photoperiod of […] PAR with day-night temperatures of 18-23° C. Daily applications of the m24GMD nutrient solution containing 3% w/v sucrose were misted onto the germinants through to the end of the two-week period in the misting chamber. Aseptic techniques or conditions were not used for application of the nutrient solutions, nor for the germination and growing environments during the 3-week culture period.
At the end of the three-week germination period, all survived germinants were counted and examined for root initiation. Germination and rooting percentages were calculated based on total number of embryos sown in each replicate.

[3] = genotype 4-2809, HRHT, IBA 0.1 μM in priming solution
[4] = genotype 4-2809, HRHT, priming solution with no regulator or IBA 0.05 μM alone, + BA 0.01 μM, + BA 0.01 μM + GA4/7 0.01 μM, or + GA4/7 0.05 μM
[5] = genotype 23-2672, HRHT, IBA 0.1 μM in priming solution
[6] = genotype 23-2672, HRHT, priming solution with no regulator or IBA 0.05 μM alone, + BA 0.01 μM, + BA 0.01 μM + GA4/7 0.01 μM, or + GA4/7 0.05 μM
[7] = genotype I-1026, 85% & frozen, IBA 0.1 μM in priming solution
[8] = genotype I-1026, 85% & frozen, priming solution with no regulator or IBA 0.05 μM alone, + BA 0.01 μM, + BA 0.01 μM + GA4/7 0.01 μM, or + GA4/7 0.05 μM
[9] = genotype 4-2809, HRHT, IBA 0.2 μM
[10] = genotype 4-2809, HRHT, substrate given no regulator or IBA 0.1 μM alone, + BA 0.02 μM, + BA 0.02 μM + GA4/7 0.2 μM (so in the source), or + GA4/7 0.1 μM
[11] = genotype 23-2672, HRHT, IBA 0.2 μM
[12] = genotype 23-2672, HRHT, substrate given no regulator or IBA 0.1 μM alone, + BA 0.02 μM, + BA 0.02 μM + GA4/7 0.2 μM (so in the source), or + GA4/7 0.1 μM
[13] = genotype I-1026, 85% & frozen, IBA 0.2 μM
[14] = genotype I-1026, 85% & frozen, substrate given no regulator or IBA 0.1 μM alone, + BA 0.02 μM, + BA 0.02 μM + GA4/7 0.2 μM (so in the source), or + GA4/7 0.1 μM

## O=C(O)CCCc1c[nH]c2ccccc12 [IBA, indole-butyric-acid]
[1]; [3]
  Germination %: 68.8 ± 5.2%
  Rooting %: 51.3 ± 4.3%
[1]; [4]
  Germination %: 92.5 ± 6.0%
  Rooting %: 82.5 ± 6.0%
[1]; [5]
  Germination %: 82.5 ± 9.7%
  Rooting %: 72.5 ± 6.3%
[1]; [6]
  Germination %: 90.0 ± 3.5%
  Rooting %: 71.3 ± 6.6%
[1]; [7]
  Germination %: 88.8 ± 6.6%
  Rooting %: 58.8 ± 5.9%
[1]; [8]
  Germination %: 93.8 ± 2.4%
  Rooting %: 66.3 ± 4.7%
[2]; [9]
  Germination %: 97.5 ± 1.4%
  Rooting %: 78.8 ± 7.5%
[2]; [10]
  Germination %: 92.5 ± 7.5%
  Rooting %: 75.0 ± 10.2%
[2]; [11]
  Germination %: 72.5 ± 10.9%
  Rooting %: 67.5 ± 10.1%
[2]; [12]
  Germination %: 72.5 ± 11. %
  Rooting %: 61.3 ± 13.4%
[2]; [13]
  Germination %: 80.0 ± 6.8%
  Rooting %: 65.0 ± 5.4%
[2]; [14]
  Germination %: 91.3 ± 5.5%
  Rooting %: 66.3 ± 3.7%
